# Laboratory results: PubChem BioAssay (NCI)
#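 The concentration for 50% growth inhibition is given as GI50. TGI: concentration producing complete growth inhibition.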
# Assays:
# Assay in all cases: DTP human tumour cell line panel, 384-well format
# A498 renal = test system: A498 renal
# A549 NSCLC = test system: A549 NSCLC
# ACHN renal = test system: ACHN renal
# BT-549 breast = test system: BT-549 breast
# CAKI-1 renal = test system: CAKI-1 renal
# COLO 205 colon = test system: COLO 205 colon
# DU-145 prostate = test system: DU-145 prostate
# EKVX NSCLC = test system: EKVX NSCLC
# HCC-2998 colon = test system: HCC-2998 colon
# HCT-116 colon = test system: HCT-116 colon
# HCT-15 colon = test system: HCT-15 colon
# HL-60(TB) leukemia = test system: HL-60(TB) leukemia
# HOP-62 NSCLC = test system: HOP-62 NSCLC
# HOP-92 NSCLC = test system: HOP-92 NSCLC
# HS 578T breast = test system: HS 578T breast
# HT29 colon = test system: HT29 colon
# IGROV1 ovarian = test system: IGROV1 ovarian
# KM12 colon = test system: KM12 colon
# LOX IMVI melanoma = test system: LOX IMVI melanoma
# M14 melanoma = test system: M14 melanoma
# MALME-3M melanoma = test system: MALME-3M melanoma
# MCF7 breast = test system: MCF7 breast
# MDA-MB-231 breast = test system: MDA-MB-231 breast
# MDA-MB-435 melanoma = test system: MDA-MB-435 melanoma
# MDA-MB-468 breast = test system: MDA-MB-468 breast
# MOLT-4 leukemia = test system: MOLT-4 leukemia
# NCI-H226 lung = test system: NCI-H226 lung
# NCI-H23 lung = test system: NCI-H23 lung
# NCI-H322M lung = test system: NCI-H322M lung
# NCI-H460 NSCLC = test system: NCI-H460 NSCLC
# NCI-H522 lung = test system: NCI-H522 lung
# NCI/ADR-RES ovarian = test system: NCI/ADR-RES ovarian
# OVCAR-3 ovarian = test system: OVCAR-3 ovarian
# OVCAR-4 ovarian = test system: OVCAR-4 ovarian
# OVCAR-5 ovarian = test system: OVCAR-5 ovarian
# OVCAR-8 ovarian = test system: OVCAR-8 ovarian
# PC-3 prostate = test system: PC-3 prostate
# RPMI-8226 leukemia = test system: RPMI-8226 leukemia
# RXF 393 renal = test system: RXF 393 renal
# SF-268 CNS = test system: SF-268 CNS
# SF-295 CNS = test system: SF-295 CNS
# SF-539 CNS = test system: SF-539 CNS
# SK-MEL-28 melanoma = test system: SK-MEL-28 melanoma
# SK-MEL-5 melanoma = test system: SK-MEL-5 melanoma
# SK-OV-3 ovarian = test system: SK-OV-3 ovarian
# SN12C renal = test system: SN12C renal
# SNB-19 CNS = test system: SNB-19 CNS
# SNB-75 CNS = test system: SNB-75 CNS
# SR leukemia = test system: SR leukemia
# T-47D breast = test system: T-47D breast
# TK-10 renal = test system: TK-10 renal
# U251 glioblastoma = test system: U251 glioblastoma
# UACC-257 melanoma = test system: UACC-257 melanoma
# UACC-62 melanoma = test system: UACC-62 melanoma
structure (smiles),measurement,setting,value
CC(=O)O/N=C1/C(c2c(O)[nH]c3cc(Br)ccc23)=Nc2ccccc21,GI50,A498 renal,182 nM
same,TGI,A498 renal,496 nM
same,GI50,A549 NSCLC,1460 nM
same,TGI,A549 NSCLC,2840 nM
same,GI50,ACHN renal,472 nM
same,TGI,ACHN renal,1660 nM
same,GI50,BT-549 breast,574 nM
same,TGI,BT-549 breast,1910 nM
same,GI50,CAKI-1 renal,675 nM
same,TGI,CAKI-1 renal,1970 nM
same,GI50,COLO 205 colon,1270 nM
same,TGI,COLO 205 colon,2530 nM
same,GI50,DU-145 prostate,1050 nM
same,TGI,DU-145 prostate,2290 nM
same,GI50,EKVX NSCLC,505 nM
same,TGI,EKVX NSCLC,2030 nM
same,GI50,HCC-2998 colon,540 nM
same,TGI,HCC-2998 colon,1980 nM
same,GI50,HCT-116 colon,1030 nM
same,TGI,HCT-116 colon,2230 nM
same,GI50,HCT-15 colon,686 nM
same,TGI,HCT-15 colon,1950 nM
same,GI50,HL-60(TB) leukemia,495 nM
same,TGI,HL-60(TB) leukemia,1150 nM
same,GI50,HOP-62 NSCLC,1070 nM
same,TGI,HOP-62 NSCLC,2260 nM
same,GI50,HOP-92 NSCLC,1250 nM
same,TGI,HOP-92 NSCLC,2650 nM
same,GI50,HS 578T breast,215 nM
same,TGI,HS 578T breast,860 nM
same,GI50,HT29 colon,1460 nM
same,TGI,HT29 colon,2800 nM
same,GI50,IGROV1 ovarian,157 nM
same,TGI,IGROV1 ovarian,1350 nM
same,GI50,KM12 colon,532 nM
same,TGI,KM12 colon,2010 nM
same,GI50,LOX IMVI melanoma,1110 nM
same,TGI,LOX IMVI melanoma,2310 nM
same,GI50,M14 melanoma,1610 nM
same,TGI,M14 melanoma,2970 nM
same,GI50,MALME-3M melanoma,1990 nM
same,TGI,MALME-3M melanoma,4240 nM
same,GI50,MCF7 breast,582 nM
same,TGI,MCF7 breast,2370 nM
same,GI50,MDA-MB-231 breast,1300 nM
same,TGI,MDA-MB-231 breast,2650 nM
same,GI50,MDA-MB-435 melanoma,1340 nM
same,TGI,MDA-MB-435 melanoma,2630 nM
same,GI50,MDA-MB-468 breast,1320 nM
same,TGI,MDA-MB-468 breast,2610 nM
same,GI50,MOLT-4 leukemia,1900 nM
same,TGI,MOLT-4 leukemia,3320 nM
same,GI50,NCI-H226 lung,257 nM
same,TGI,NCI-H226 lung,1080 nM
same,GI50,NCI-H23 lung,1470 nM
same,TGI,NCI-H23 lung,2860 nM
same,GI50,NCI-H322M lung,727 nM
same,TGI,NCI-H322M lung,2010 nM
same,GI50,NCI-H460 NSCLC,798 nM
same,TGI,NCI-H460 NSCLC,2070 nM
same,GI50,NCI-H522 lung,1480 nM
same,TGI,NCI-H522 lung,2810 nM
same,GI50,NCI/ADR-RES ovarian,1240 nM
same,TGI,NCI/ADR-RES ovarian,2520 nM
same,GI50,OVCAR-3 ovarian,186 nM
same,TGI,OVCAR-3 ovarian,946 nM
same,GI50,OVCAR-4 ovarian,1250 nM
same,TGI,OVCAR-4 ovarian,2540 nM
same,GI50,OVCAR-5 ovarian,1980 nM
same,TGI,OVCAR-5 ovarian,3400 nM
same,GI50,OVCAR-8 ovarian,1100 nM
same,TGI,OVCAR-8 ovarian,2310 nM
same,GI50,PC-3 prostate,462 nM
same,TGI,PC-3 prostate,1780 nM
same,GI50,RPMI-8226 leukemia,685 nM
same,TGI,RPMI-8226 leukemia,1860 nM
same,GI50,RXF 393 renal,1010 nM
same,TGI,RXF 393 renal,2220 nM
same,GI50,SF-268 CNS,1050 nM
same,TGI,SF-268 CNS,2250 nM
same,GI50,SF-295 CNS,1000 nM
same,TGI,SF-295 CNS,2320 nM
same,GI50,SF-539 CNS,505 nM
same,TGI,SF-539 CNS,1690 nM
same,GI50,SK-MEL-28 melanoma,1670 nM
same,TGI,SK-MEL-28 melanoma,3070 nM
same,GI50,SK-MEL-5 melanoma,312 nM
same,TGI,SK-MEL-5 melanoma,1660 nM
same,GI50,SK-OV-3 ovarian,275 nM
same,TGI,SK-OV-3 ovarian,1330 nM
same,GI50,SN12C renal,53.8 nM
same,TGI,SN12C renal,710 nM
same,GI50,SNB-19 CNS,1470 nM
same,TGI,SNB-19 CNS,2870 nM
same,GI50,SNB-75 CNS,554 nM
same,TGI,SNB-75 CNS,2040 nM
same,GI50,SR leukemia,1140 nM
same,TGI,SR leukemia,2350 nM
same,GI50,T-47D breast,1760 nM
same,TGI,T-47D breast,3230 nM
same,GI50,TK-10 renal,356 nM
same,TGI,TK-10 renal,1590 nM
same,GI50,U251 glioblastoma,1080 nM
same,TGI,U251 glioblastoma,2280 nM
same,GI50,UACC-257 melanoma,1720 nM
same,TGI,UACC-257 melanoma,3100 nM
same,GI50,UACC-62 melanoma,636 nM
same,TGI,UACC-62 melanoma,1890 nM
